The source of these data is patent US9777266B2, “Methods for efficient, expansive, user-defined DNA mutagenesis” (THE JOHNS HOPKINS UNIVERSITY, priority 2012, dated 2017).

Molecules are shown by their SMILES.

Assay [1] has as its system cells bearing wildtype TEM-1. In words: MIC assay on Mueller Hinton agar, cells bearing TEM-1 without mutation (allele 'none'). It is filed as cell-based, E. coli. How it is done:
(§1) Selected single base mutations were re-introduced into TEM-1 by site-directed PFunkel mutagenesis on the 20 μL volume scale. The MIC for ampicillin and piperacillin of the mutants was assessed with and without 6 μg/mL tazobactam by spotting 10^4 CFU on Mueller-Hinton agar plates containing 50 μg/mL Spec, 300 μM IPTG, and √2-fold increments of either ampicillin or piperacillin. Plates were incubated at 37° C. for 12 hrs.

For assay [2], the system named is cells bearing TEM-1 allele Y105N. In words: MIC assay on Mueller Hinton agar, TEM-1 allele Y105N. Format: cell-based, E. coli. The conditions noted are these: replicates 1-3. How it is done:
as §1

Where [3] appears, read: +tazobactam 6 μg/mL, replicates 1-3.
Where [4] appears, read: −tazobactam, replicates 1-3, 10^4 CFU/spot, 37° C. for 12 hours.

As for `CC1(C)S[C@@H]2[C@H](NC(=O)[C@H](N)c3ccccc3)C(=O)N2[C@H]1C(=O)O` [Ampicillin, ampicillin], the MIC ampicillin in assay [1] (setting [3]) came out at 22.6 µg/mL; in assay [1] (setting [4]), 8192 µg/mL; in assay [2] (+tazobactam 6 μg/mL) it was 1448 µg/mL; in assay [2] (−tazobactam) it was 5792 µg/mL.
With `CCN1CCN(C(=O)N[C@@H](C(=O)N[C@@H]2C(=O)N3[C@@H]2SC(C)(C)[C@@H]3C(=O)O)c2ccccc2)C(=O)C1=O` [Piperacillin, piperacillin], the “Piperacillin MIC” value in assay [1] (setting [3]) was 1.4 µg/mL; in assay [1] (setting [4]), 2896 µg/mL.
